Results published in ChEMBL document CHEMBL1133072, “Synthesis and biological activity of 1beta-methyl-2-[5'-isoxazoloethenylpyrrolidin-3'-ylthio]carbapenems” (2000).
In brackets after ≈: the same amount, converted by molar mass.

What was measured:
[1] = tested on: Escherichia coli; assay: Minimum inhibitory concentration against Escherichia coli 055 was determined by agar dilution method using Mueller-Hinton; assay type: functional
[2] = tested on: Staphylococcus aureus; assay: Minimum inhibitory concentration against Staphylococcus aureus 503 was determined by agar dilution method using Mueller-Hinton; assay type: functional
[3] = molecular target: Dipeptidase 1 (Sus scrofa) (UniProt P22412); assay: Relative half life of hydrolysis to meropenem by partially purified porcine renal DHP-I was determined
Chain of Dipeptidase 1 (Sus scrofa) (P22412 whole entry, looked up): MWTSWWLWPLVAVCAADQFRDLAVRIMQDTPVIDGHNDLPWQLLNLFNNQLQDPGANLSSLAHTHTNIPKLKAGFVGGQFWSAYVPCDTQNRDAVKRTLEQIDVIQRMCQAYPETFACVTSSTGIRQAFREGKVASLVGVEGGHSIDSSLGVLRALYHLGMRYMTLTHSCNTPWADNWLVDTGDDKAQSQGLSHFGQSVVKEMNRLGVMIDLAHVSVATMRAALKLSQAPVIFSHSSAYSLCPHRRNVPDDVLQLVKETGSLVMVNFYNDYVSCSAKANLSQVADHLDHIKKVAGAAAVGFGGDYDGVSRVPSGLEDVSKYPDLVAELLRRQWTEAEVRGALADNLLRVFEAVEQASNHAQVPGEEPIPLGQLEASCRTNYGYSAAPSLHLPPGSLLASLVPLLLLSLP

[4] = tested on: Staphylococcus aureus; assay: Minimum inhibitory concentration against Staphylococcus aureus 285 was determined by agar dilution method using Mueller-Hinton; assay type: functional
[5] = tested on: Salmonella typhimurium; assay: Minimum inhibitory concentration against Salmonella Typhimurium was determined by agar dilution method using Mueller-Hinton; assay type: functional, Salmonella enterica subsp. enterica serovar Typhimurium; conditions: Salmonella enterica
[6] = tested on: Streptococcus pyogenes; assay: Minimum inhibitory concentration against Streptococcus pyogenes 308A was determined by agar dilution method using Mueller-Hinton; assay type: functional
[7] = tested on: Pseudomonas aeruginosa; assay: Minimum inhibitory concentration against Pseudomonas aeruginosa 1592E was determined by agar dilution method using Mueller-Hinton; assay type: functional
[8] = tested on: Enterobacter cloacae; assay: Minimum inhibitory concentration against Enterobacter cloacae 1321E was determined by agar dilution method using Mueller-Hinton; assay type: functional
[9] = tested on: Klebsiella aerogenes; assay: Minimum inhibitory concentration against Klebsiella aerogenes 1522E was determined by agar dilution method using Mueller-Hinton; assay type: functional
[10] = tested on: Pseudomonas aeruginosa; assay: Minimum inhibitory concentration against Pseudomonas aeruginosa 1771M was determined by agar dilution method using Mueller-Hinton; assay type: functional
[11] = tested on: Staphylococcus aureus; assay: Minimum inhibitory concentration against Staphylococcus aureus SG 511 was determined by agar dilution method using Mueller-Hinton; assay type: functional
[12] = tested on: Escherichia coli; assay: Minimum inhibitory concentration against Escherichia coli 1507E was determined by agar dilution method using Mueller-Hinton; assay type: functional
[13] = tested on: Pseudomonas aeruginosa; assay: Minimum inhibitory concentration against Pseudomonas aeruginosa 9027 was determined by agar dilution method using Mueller-Hinton; assay type: functional
[14] = molecular target: Dipeptidase 1 (Sus scrofa) (UniProt P22412); assay: Stability to porcine renal DHP-I was determined

C[C@@H](O)[C@H]1C(=O)N2C(C(=O)O)=C(S[C@@H]3CN[C@H](/C=C/c4cc(CO)no4)C3)[C@H](C)[C@H]12
MIC [1]: 0.025 µg/mL (≈ 0.0574 µM)
MIC [2]: 0.025 µg/mL (≈ 0.0574 µM)
Relativity [3]: 2.01
MIC [4]: 0.025 µg/mL (≈ 0.0574 µM)
MIC [5]: 0.049 µg/mL (≈ 0.113 µM)
MIC [6]: 0.007 µg/mL (≈ 0.0161 µM)
MIC [7]: 0.195 µg/mL (≈ 0.448 µM)
MIC [8]: 0.025 µg/mL (≈ 0.0574 µM)
MIC [9]: 0.049 µg/mL (≈ 0.113 µM)
MIC [10]: 0.098 µg/mL (≈ 0.225 µM)
MIC [11]: 0.025 µg/mL (≈ 0.0574 µM)
MIC [12]: 0.025 µg/mL (≈ 0.0574 µM)
MIC [13]: 0.195 µg/mL (≈ 0.448 µM)

C[C@@H](O)[C@H]1C(=O)N2C(C(=O)O)=C(S[C@@H]3CN[C@H](/C=C/c4ccno4)C3)[C@H](C)[C@H]12
MIC [1]: 0.025 µg/mL (≈ 0.0617 µM)
MIC [2]: 0.013 µg/mL (≈ 0.0321 µM)
Relativity [3]: 1.95
MIC [4]: 0.025 µg/mL (≈ 0.0617 µM)
MIC [5]: 0.049 µg/mL (≈ 0.121 µM)
MIC [6]: 0.004 µg/mL (≈ 0.00986 µM)
MIC [7]: 0.195 µg/mL (≈ 0.481 µM)
MIC [8]: 0.025 µg/mL (≈ 0.0617 µM)
MIC [9]: 0.049 µg/mL (≈ 0.121 µM)
MIC [10]: 0.195 µg/mL (≈ 0.481 µM)
MIC [11]: 0.025 µg/mL (≈ 0.0617 µM)
MIC [12]: 0.025 µg/mL (≈ 0.0617 µM)
MIC [13]: 0.195 µg/mL (≈ 0.481 µM)

COC(=O)c1cc(/C=C\[C@@H]2C[C@H](SC3=C(C(=O)O)N4C(=O)[C@H]([C@@H](C)O)[C@H]4[C@H]3C)CN2)on1
MIC [1]: 0.025 µg/mL (≈ 0.0539 µM)
MIC [2]: 0.025 µg/mL (≈ 0.0539 µM)
Relativity [3]: 1.35
MIC [4]: 0.049 µg/mL (≈ 0.106 µM)
MIC [5]: 0.025 µg/mL (≈ 0.0539 µM)
MIC [6]: 0.007 µg/mL (≈ 0.0151 µM)
MIC [7]: 0.195 µg/mL (≈ 0.421 µM)
MIC [8]: 0.025 µg/mL (≈ 0.0539 µM)
MIC [9]: 0.049 µg/mL (≈ 0.106 µM)
MIC [10]: 0.195 µg/mL (≈ 0.421 µM)
MIC [11]: 0.049 µg/mL (≈ 0.106 µM)
MIC [12]: 0.025 µg/mL (≈ 0.0539 µM)
MIC [13]: 0.098 µg/mL (≈ 0.211 µM)

COc1cc(/C=C/[C@@H]2C[C@H](SC3=C(C(=O)O)N4C(=O)[C@H]([C@@H](C)O)[C@H]4[C@H]3C)CN2)on1
MIC [1]: 0.098 µg/mL (≈ 0.225 µM)
MIC [2]: 0.049 µg/mL (≈ 0.113 µM)
Relativity [3]: 2.14
MIC [4]: 0.025 µg/mL (≈ 0.0574 µM)
MIC [5]: 0.195 µg/mL (≈ 0.448 µM)
MIC [6]: 0.007 µg/mL (≈ 0.0161 µM)
MIC [7]: 12.5 µg/mL (≈ 28.7 µM)
MIC [8]: 0.195 µg/mL (≈ 0.448 µM)
MIC [9]: 0.391 µg/mL (≈ 0.898 µM)
MIC [10]: 6.25 µg/mL (≈ 14.4 µM)
MIC [11]: 0.049 µg/mL (≈ 0.113 µM)
MIC [12]: 0.391 µg/mL (≈ 0.898 µM)
MIC [13]: 12.5 µg/mL (≈ 28.7 µM)

C[C@@H](O)[C@H]1C(=O)N2C(C(=O)O)=C(S[C@@H]3CN[C@H](/C=C/c4ccon4)C3)[C@H](C)[C@H]12
MIC [1]: 0.098 µg/mL (≈ 0.242 µM)
MIC [2]: 0.098 µg/mL (≈ 0.242 µM)
Relativity [3]: 2.33
MIC [4]: 0.195 µg/mL (≈ 0.481 µM)
MIC [5]: 0.098 µg/mL (≈ 0.242 µM)
MIC [6]: 0.025 µg/mL (≈ 0.0617 µM)
MIC [7]: 3.12 µg/mL (≈ 7.71 µM)
MIC [8]: 0.049 µg/mL (≈ 0.121 µM)
MIC [9]: 0.098 µg/mL (≈ 0.242 µM)
MIC [10]: 0.781 µg/mL (≈ 1.93 µM)
MIC [11]: 0.195 µg/mL (≈ 0.481 µM)
MIC [12]: 0.098 µg/mL (≈ 0.242 µM)
MIC [13]: 3.12 µg/mL (≈ 7.71 µM)

C[C@@H](O)[C@H]1C(=O)N2C(C(=O)O)=C(S[C@@H]3CN[C@H](/C=C\c4cnoc4)C3)[C@H](C)[C@H]12
MIC [1]: 0.391 µg/mL (≈ 0.964 µM)
MIC [2]: 0.013 µg/mL (≈ 0.0321 µM)
Relativity [3]: 1.84
MIC [4]: 0.025 µg/mL (≈ 0.0617 µM)
MIC [5]: 0.391 µg/mL (≈ 0.964 µM)
MIC [6]: < 0.002 µg/mL
MIC [7]: 25 µg/mL (≈ 61.7 µM)
MIC [8]: 1.56 µg/mL (≈ 3.85 µM)
MIC [9]: 3.12 µg/mL (≈ 7.71 µM)
MIC [10]: 3.12 µg/mL (≈ 7.71 µM)
MIC [11]: 0.013 µg/mL (≈ 0.0321 µM)
MIC [12]: 1.56 µg/mL (≈ 3.85 µM)
MIC [13]: 25 µg/mL (≈ 61.7 µM)

COC(=O)c1cc(/C=C/[C@@H]2C[C@H](SC3=C(C(=O)O)N4C(=O)[C@H]([C@@H](C)O)[C@H]4[C@H]3C)CN2)on1
MIC [1]: 0.025 µg/mL (≈ 0.0539 µM)
MIC [2]: 0.025 µg/mL (≈ 0.0539 µM)
Relativity [3]: 2.68
MIC [4]: 0.049 µg/mL (≈ 0.106 µM)
MIC [5]: 0.025 µg/mL (≈ 0.0539 µM)
MIC [6]: 0.007 µg/mL (≈ 0.0151 µM)
MIC [7]: 0.195 µg/mL (≈ 0.421 µM)
MIC [8]: 0.025 µg/mL (≈ 0.0539 µM)
MIC [9]: 0.049 µg/mL (≈ 0.106 µM)
MIC [10]: 0.098 µg/mL (≈ 0.211 µM)
MIC [11]: 0.049 µg/mL (≈ 0.106 µM)
MIC [12]: 0.025 µg/mL (≈ 0.0539 µM)
MIC [13]: 0.098 µg/mL (≈ 0.211 µM)

C[C@@H](O)[C@H]1C(=O)N2C(C(=O)O)=C(S[C@@H]3CN[C@H](C(=O)N(C)C)C3)[C@H](C)[C@H]12 [MEROPENEM]
MIC [1]: 0.025 µg/mL (≈ 0.0652 µM)
MIC [2]: 0.098 µg/mL (≈ 0.256 µM)
MIC [4]: 0.195 µg/mL (≈ 0.509 µM)
MIC [5]: 0.049 µg/mL (≈ 0.128 µM)
MIC [6]: 0.013 µg/mL (≈ 0.0339 µM)
MIC [7]: 0.195 µg/mL (≈ 0.509 µM)
MIC [8]: 0.025 µg/mL (≈ 0.0652 µM)
Activity [14]: 1
MIC [9]: 0.049 µg/mL (≈ 0.128 µM)
MIC [10]: 0.049 µg/mL (≈ 0.128 µM)
MIC [11]: 0.195 µg/mL (≈ 0.509 µM)
MIC [12]: 0.025 µg/mL (≈ 0.0652 µM)
MIC [13]: 0.195 µg/mL (≈ 0.509 µM)

C[C@@H](O)[C@H]1C(=O)N2C(C(=O)O)=C(SCCNC=N)C[C@H]12 [IMIPENEM ANHYDROUS]
MIC [1]: 0.098 µg/mL (≈ 0.327 µM)
MIC [2]: 0.013 µg/mL (≈ 0.0434 µM)
Relativity [3]: 0.19
MIC [4]: 0.025 µg/mL (≈ 0.0835 µM)
MIC [5]: 0.781 µg/mL (≈ 2.61 µM)
MIC [6]: 0.007 µg/mL (≈ 0.0234 µM)
MIC [7]: 1.56 µg/mL (≈ 5.22 µM)
MIC [8]: 0.195 µg/mL (≈ 0.651 µM)
MIC [9]: 0.391 µg/mL (≈ 1.31 µM)
MIC [10]: 0.195 µg/mL (≈ 0.651 µM)
MIC [11]: 0.025 µg/mL (≈ 0.0835 µM)
MIC [12]: 0.195 µg/mL (≈ 0.651 µM)
MIC [13]: 0.781 µg/mL (≈ 2.61 µM)

C[C@@H](O)[C@H]1C(=O)N2C(C(=O)O)=C(S[C@@H]3CN[C@H](/C=C\c4cc(CO)no4)C3)[C@H](C)[C@H]12
MIC [1]: 0.049 µg/mL (≈ 0.113 µM)
MIC [2]: 0.049 µg/mL (≈ 0.113 µM)
Relativity [3]: 1.59
MIC [4]: 0.049 µg/mL (≈ 0.113 µM)
MIC [5]: 0.098 µg/mL (≈ 0.225 µM)
MIC [6]: 0.013 µg/mL (≈ 0.0299 µM)
MIC [7]: 3.12 µg/mL (≈ 7.18 µM)
MIC [8]: 0.049 µg/mL (≈ 0.113 µM)
MIC [9]: 0.098 µg/mL (≈ 0.225 µM)
MIC [10]: 1.56 µg/mL (≈ 3.59 µM)
MIC [11]: 0.049 µg/mL (≈ 0.113 µM)
MIC [12]: 0.049 µg/mL (≈ 0.113 µM)
MIC [13]: 3.12 µg/mL (≈ 7.18 µM)

C[C@@H](O)[C@H]1C(=O)N2C(C(=O)O)=C(S[C@@H]3CN[C@H](/C=C/c4cc(Cl)no4)C3)[C@H](C)[C@H]12
MIC [1]: 0.025 µg/mL (≈ 0.0568 µM)
MIC [2]: 0.013 µg/mL (≈ 0.0296 µM)
Relativity [3]: 1.33
MIC [4]: 0.025 µg/mL (≈ 0.0568 µM)
MIC [5]: 0.025 µg/mL (≈ 0.0568 µM)
MIC [6]: 0.004 µg/mL (≈ 0.00909 µM)
MIC [7]: 0.781 µg/mL (≈ 1.78 µM)
MIC [8]: 0.013 µg/mL (≈ 0.0296 µM)
MIC [9]: 0.025 µg/mL (≈ 0.0568 µM)
MIC [10]: 0.195 µg/mL (≈ 0.443 µM)
MIC [11]: 0.013 µg/mL (≈ 0.0296 µM)
MIC [12]: 0.025 µg/mL (≈ 0.0568 µM)
MIC [13]: 0.781 µg/mL (≈ 1.78 µM)
